Laboratory results taken from patent US8343998B2, “Triazolothiadiazole inhibitor of c-Met protein kinase” (Vertex Pharmaceuticals Incorporated, priority 2008, dated 2013).
Values after ≈ are worked out from the molar mass of the structure shown. Values joined by “and” are separate entries in the source; they are usually repeats but may differ in a detail not shown here. Equal values may be shown once. Read-outs that look alike come from different tables or passages of the source.

Tests used:
[1] = target: T1, c-Met (Homo sapiens, UniProt P08581); experiment: Inhibition of c-Met activity in Snu5 gastric carcinoma cells (Snu5-AP1-Luc-Pest luciferase signal); format: cell-based; settings: 6 hours, luciferase luminescence
T1 construct: is a human gastric carcinoma known to overexpress c-Met, which is constitutively active; host or cells: Snu5-AP1-Luc-Pest (Snu5 transduced with an AP1-luciferase-PEST reporter)
T1 sequence (P08581 25-1390): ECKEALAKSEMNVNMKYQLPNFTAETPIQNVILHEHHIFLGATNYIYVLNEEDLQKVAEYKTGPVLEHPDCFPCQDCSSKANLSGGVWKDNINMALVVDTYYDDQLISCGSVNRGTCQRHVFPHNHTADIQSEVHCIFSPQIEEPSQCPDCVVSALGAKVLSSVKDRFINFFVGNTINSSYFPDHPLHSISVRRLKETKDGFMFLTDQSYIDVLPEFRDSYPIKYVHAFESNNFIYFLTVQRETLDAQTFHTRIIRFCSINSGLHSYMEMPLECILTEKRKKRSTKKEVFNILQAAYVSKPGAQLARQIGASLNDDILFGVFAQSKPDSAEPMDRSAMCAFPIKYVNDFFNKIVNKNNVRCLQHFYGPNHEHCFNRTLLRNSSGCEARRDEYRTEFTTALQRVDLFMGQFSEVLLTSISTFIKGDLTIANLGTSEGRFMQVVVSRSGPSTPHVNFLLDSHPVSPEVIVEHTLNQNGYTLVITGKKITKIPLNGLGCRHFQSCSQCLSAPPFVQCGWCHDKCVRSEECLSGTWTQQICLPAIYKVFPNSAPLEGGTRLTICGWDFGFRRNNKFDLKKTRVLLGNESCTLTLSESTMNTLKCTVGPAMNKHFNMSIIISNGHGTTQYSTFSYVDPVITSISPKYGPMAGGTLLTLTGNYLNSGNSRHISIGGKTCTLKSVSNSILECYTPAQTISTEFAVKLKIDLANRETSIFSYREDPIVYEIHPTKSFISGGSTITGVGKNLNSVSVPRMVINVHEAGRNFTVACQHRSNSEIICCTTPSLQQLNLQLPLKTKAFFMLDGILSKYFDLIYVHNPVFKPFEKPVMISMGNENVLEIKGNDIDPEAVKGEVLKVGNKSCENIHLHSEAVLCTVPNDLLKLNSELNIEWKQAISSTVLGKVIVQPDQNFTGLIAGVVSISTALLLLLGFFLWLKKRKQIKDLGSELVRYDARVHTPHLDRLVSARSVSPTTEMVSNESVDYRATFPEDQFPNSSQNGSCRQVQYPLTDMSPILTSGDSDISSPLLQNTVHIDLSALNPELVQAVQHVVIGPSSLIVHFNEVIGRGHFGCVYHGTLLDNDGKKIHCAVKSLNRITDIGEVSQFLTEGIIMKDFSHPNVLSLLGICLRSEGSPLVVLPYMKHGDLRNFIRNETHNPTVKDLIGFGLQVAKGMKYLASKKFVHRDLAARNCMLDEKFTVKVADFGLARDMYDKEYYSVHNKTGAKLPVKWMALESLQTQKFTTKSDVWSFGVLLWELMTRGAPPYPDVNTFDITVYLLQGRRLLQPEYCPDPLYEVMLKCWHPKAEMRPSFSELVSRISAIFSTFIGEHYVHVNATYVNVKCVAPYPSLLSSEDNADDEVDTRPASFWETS
Excerpt: Compound 1 was also screened for their ability to inhibit the Luciferase-induced signal in an engineered Snu5 cell line. Snu5 [obtained from American Type Culture Collection (Catalog number CRL-5973)] is a human gastric carcinoma known to overexpress c-Met, which is constitutively active. […] The constitutively active c-Met activates cellular pathways (principally MAP kinase), resulting in AP-1-induced transcription of luciferase-PEST and translation into the final product, the activity of which is quantifiable as a chemiluminescent readout upon the addition of luciferin (Steady-Glo from Promega.). Residual luminescence is strongly correlated to the inhibition of c-Met. A stable cell line was obtained by selecting the new cell line (Snu5-AP1-Luc-Pest) with puromycin. The cells were grown in complete media [Iscove's media (Invitrogen) containing 10% fetal bovine serum (FBS, Hyclone) and penicillin/gentamycin (Invitrogen)]. Compounds of the invention were dissolved in DMSO to make 10 mM initial stock solutions. Serial dilutions in DMSO were then made and transferred to complete medium to make a 10× solution. The Snu5-AP1-Luc-Pest cells were counted and diluted to 200,000-cells/mL solution. […] The plate was read on a 1450 Microbeta Liquid Scintillation and Luminescence Counter (Perkin-Elmer). The IC50 was calculated using a 4-parameter fit using the graphing software Prism (GraphPad).

[2] = Solubility of compound 1 crystalline free base in different solvents, by HPLC; format: physicochemical; settings: thermodynamic from solid, crystalline free base slurry, room temperature, 4 day solution, read-out: Conc. FB (solubility)
Experimental: About 10 mg of compound 1, crystalline free base (FB), was loaded into a vial with a magnetic stir bar. About 150 μL of solvent were added to each vial. If compound 1 dissolved completely, more solid was added to the vial and stirring of the resulting slurry was continued at room temperature. The 4 day solution was filtered off using centrifuge filters and diluted in methanol to obtain solubility data by HPLC analysis. X-ray diffraction data of the crystals in the slurry were collected after 4 and 14 days.

[3] = target: T2, CYP2D6 (Homo sapiens, UniProt P10635); experiment: Stability in human recombinant CYP isoform; format: in vitro ADME; settings: 120 minutes, 50 pmoles CYP/mL, NADPH, two separate studies (two lines)
T2 construct: host or cells: baculovirus-infected insect cells
T2 sequence (P10635 whole entry, canonical isoform): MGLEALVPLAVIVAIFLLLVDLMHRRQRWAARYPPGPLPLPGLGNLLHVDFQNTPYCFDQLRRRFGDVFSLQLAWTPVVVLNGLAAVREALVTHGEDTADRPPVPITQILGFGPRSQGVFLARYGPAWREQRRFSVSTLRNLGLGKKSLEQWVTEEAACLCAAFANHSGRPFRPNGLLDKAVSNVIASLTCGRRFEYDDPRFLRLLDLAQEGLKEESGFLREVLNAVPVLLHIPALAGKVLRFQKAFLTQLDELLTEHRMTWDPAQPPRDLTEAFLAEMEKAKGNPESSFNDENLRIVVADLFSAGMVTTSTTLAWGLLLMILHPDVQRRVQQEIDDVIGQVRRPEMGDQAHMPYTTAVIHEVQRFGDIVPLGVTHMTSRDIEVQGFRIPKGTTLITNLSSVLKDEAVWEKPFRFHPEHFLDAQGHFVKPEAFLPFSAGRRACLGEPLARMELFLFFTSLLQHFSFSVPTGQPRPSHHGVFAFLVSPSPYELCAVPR
Experimental: (§1) The stability of compound 1 was evaluated in cDNA Baculovirus-insect cell-expressed human cytochrome P450 (CYP) isoforms CYP1A2, CYP2B6, CYP2C9, CYP2C19, CYP2D6, CYP2E1, and CYP3A4. Accordingly, the human recombinant cytochrome P450 isoforms at a final concentration of 50 pmoles of CYP/mL were incubated in phosphate buffer (pH 7.4) with 2.0 mM NADPH and compound 1 at compound concentrations of 1 μM and 10 μM. Sampling was conducted at 0 and 120 minutes and the amount of compound remaining was evaluated by LC/MS/MS analysis.

[4] = target: T3, CYP1A2 (Homo sapiens, UniProt P05177); experiment: Stability in human recombinant CYP isoform; format: in vitro ADME; settings: 120 minutes, 50 pmoles CYP/mL, NADPH, two separate studies (two lines)
T3 construct: host or cells: baculovirus-infected insect cells
T3 sequence (P05177 1-516): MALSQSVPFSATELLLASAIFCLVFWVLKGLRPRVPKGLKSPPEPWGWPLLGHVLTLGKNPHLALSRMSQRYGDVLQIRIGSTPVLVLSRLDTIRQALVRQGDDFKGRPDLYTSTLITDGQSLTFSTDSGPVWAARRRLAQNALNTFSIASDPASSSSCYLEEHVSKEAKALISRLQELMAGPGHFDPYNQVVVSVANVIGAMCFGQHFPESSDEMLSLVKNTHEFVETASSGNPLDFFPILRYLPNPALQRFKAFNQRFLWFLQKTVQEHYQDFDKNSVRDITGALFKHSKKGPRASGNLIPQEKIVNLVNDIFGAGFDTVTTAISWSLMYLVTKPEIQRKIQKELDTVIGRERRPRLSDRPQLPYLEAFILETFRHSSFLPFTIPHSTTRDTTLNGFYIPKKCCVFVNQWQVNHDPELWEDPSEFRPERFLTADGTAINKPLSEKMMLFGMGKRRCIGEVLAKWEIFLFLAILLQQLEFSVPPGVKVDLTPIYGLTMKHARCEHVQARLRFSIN
Experimental: as §1

[5] = target: T4, CYP2E1 (Homo sapiens, UniProt P05181); experiment: Stability in human recombinant CYP isoform; format: in vitro ADME; settings: 120 minutes, 50 pmoles CYP/mL, NADPH, two separate studies (two lines)
T4 construct: host or cells: baculovirus-infected insect cells
T4 sequence (P05181 whole entry, canonical isoform): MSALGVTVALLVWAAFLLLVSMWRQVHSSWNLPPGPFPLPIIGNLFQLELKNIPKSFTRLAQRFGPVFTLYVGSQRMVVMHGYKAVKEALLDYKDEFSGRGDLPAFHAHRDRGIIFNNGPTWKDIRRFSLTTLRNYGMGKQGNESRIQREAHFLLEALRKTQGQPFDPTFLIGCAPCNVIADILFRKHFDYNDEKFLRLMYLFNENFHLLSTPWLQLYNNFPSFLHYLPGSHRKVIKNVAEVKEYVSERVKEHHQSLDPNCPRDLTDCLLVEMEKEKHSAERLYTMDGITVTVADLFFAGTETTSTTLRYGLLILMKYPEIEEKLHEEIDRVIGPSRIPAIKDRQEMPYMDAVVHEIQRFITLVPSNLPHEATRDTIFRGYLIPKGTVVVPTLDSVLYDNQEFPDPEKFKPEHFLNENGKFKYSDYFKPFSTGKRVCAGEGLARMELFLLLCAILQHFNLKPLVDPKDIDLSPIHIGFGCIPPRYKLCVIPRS
Experimental: as §1

[6] = target: T5, CYP2C19 (Homo sapiens, UniProt P33261); experiment: Stability in human recombinant CYP isoform; format: in vitro ADME
T5 construct: host or cells: baculovirus-infected insect cells
T5 sequence (P33261 whole entry, canonical isoform): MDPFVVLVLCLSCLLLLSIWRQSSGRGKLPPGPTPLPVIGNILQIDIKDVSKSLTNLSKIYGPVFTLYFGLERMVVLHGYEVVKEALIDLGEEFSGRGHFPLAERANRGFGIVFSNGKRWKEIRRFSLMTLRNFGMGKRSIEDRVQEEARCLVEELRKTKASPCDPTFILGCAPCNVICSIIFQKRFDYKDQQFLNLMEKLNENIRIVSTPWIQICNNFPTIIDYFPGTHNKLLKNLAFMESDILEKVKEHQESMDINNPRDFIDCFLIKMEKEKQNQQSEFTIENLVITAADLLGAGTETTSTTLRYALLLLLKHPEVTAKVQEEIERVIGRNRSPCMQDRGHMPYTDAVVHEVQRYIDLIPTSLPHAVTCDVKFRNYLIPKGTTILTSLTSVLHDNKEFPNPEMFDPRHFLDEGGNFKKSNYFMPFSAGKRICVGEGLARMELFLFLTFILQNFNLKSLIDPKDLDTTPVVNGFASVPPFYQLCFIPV
Experimental: as §1

[7] = target: T6, CYP3A4 (Homo sapiens, UniProt P08684); experiment: Stability in human recombinant CYP isoform; format: in vitro ADME
T6 construct: host or cells: baculovirus-infected insect cells
T6 sequence (P08684 whole entry, canonical isoform): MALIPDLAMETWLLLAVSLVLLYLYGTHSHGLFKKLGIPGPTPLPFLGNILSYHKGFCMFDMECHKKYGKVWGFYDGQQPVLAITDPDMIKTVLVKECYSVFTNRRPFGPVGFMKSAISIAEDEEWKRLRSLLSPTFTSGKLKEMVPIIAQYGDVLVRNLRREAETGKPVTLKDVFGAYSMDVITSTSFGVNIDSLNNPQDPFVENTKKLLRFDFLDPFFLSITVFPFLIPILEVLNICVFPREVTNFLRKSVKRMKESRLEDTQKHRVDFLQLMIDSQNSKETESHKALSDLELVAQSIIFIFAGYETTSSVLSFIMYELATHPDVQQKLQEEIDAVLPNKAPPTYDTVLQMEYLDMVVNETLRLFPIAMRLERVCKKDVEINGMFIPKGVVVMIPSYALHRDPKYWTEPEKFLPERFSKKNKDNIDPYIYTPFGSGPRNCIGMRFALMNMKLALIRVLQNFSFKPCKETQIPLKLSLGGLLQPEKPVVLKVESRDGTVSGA
Experimental: as §1

[8] = target: T7, CYP2C9 (Homo sapiens, UniProt P11712); experiment: Stability in human recombinant CYP isoform; format: in vitro ADME; settings: 120 minutes, 50 pmoles CYP/mL, NADPH, two separate studies (two lines)
T7 construct: host or cells: baculovirus-infected insect cells
T7 sequence (P11712 whole entry, canonical isoform): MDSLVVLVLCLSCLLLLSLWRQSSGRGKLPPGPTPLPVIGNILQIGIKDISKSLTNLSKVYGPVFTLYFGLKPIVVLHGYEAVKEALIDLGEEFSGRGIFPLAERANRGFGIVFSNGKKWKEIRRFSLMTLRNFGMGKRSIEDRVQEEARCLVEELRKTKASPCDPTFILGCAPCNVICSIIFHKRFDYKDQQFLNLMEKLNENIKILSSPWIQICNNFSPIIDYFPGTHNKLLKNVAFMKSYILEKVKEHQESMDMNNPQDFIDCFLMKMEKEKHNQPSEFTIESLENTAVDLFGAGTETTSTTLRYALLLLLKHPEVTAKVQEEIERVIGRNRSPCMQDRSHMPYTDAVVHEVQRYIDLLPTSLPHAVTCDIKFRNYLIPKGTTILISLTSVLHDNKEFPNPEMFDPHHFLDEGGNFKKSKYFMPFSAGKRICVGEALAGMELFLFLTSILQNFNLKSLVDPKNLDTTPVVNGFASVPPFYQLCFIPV
Experimental: as §1

[9] = target: T8, CYP2B6 (Homo sapiens, UniProt P20813); experiment: Stability in human recombinant CYP isoform; format: in vitro ADME; settings: 120 minutes, 50 pmoles CYP/mL, NADPH, two separate studies (two lines)
T8 construct: host or cells: baculovirus-infected insect cells
T8 sequence (P20813 1-491): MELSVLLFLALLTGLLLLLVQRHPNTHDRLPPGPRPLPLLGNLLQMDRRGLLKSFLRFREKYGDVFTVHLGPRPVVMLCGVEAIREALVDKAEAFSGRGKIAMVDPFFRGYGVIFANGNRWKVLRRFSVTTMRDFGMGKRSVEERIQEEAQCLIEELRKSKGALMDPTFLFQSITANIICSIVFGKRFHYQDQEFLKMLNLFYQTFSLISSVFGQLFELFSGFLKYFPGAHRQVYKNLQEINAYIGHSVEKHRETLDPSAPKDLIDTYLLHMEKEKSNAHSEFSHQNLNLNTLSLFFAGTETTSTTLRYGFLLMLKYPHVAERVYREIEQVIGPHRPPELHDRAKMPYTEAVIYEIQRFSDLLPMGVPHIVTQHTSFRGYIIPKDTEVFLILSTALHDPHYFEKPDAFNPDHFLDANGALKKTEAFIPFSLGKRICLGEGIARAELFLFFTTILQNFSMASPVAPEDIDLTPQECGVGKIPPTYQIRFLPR
Experimental: as §1

[10] = target: T9, hERG (Homo sapiens, UniProt Q12809); experiment: hERG inhibition assay, whole cell recording in HEK293 cells expressing hERG; format: cell-based; settings: hERG current, peak tail current
T9 construct: host or cells: HEK293
T9 sequence (Q12809 whole entry): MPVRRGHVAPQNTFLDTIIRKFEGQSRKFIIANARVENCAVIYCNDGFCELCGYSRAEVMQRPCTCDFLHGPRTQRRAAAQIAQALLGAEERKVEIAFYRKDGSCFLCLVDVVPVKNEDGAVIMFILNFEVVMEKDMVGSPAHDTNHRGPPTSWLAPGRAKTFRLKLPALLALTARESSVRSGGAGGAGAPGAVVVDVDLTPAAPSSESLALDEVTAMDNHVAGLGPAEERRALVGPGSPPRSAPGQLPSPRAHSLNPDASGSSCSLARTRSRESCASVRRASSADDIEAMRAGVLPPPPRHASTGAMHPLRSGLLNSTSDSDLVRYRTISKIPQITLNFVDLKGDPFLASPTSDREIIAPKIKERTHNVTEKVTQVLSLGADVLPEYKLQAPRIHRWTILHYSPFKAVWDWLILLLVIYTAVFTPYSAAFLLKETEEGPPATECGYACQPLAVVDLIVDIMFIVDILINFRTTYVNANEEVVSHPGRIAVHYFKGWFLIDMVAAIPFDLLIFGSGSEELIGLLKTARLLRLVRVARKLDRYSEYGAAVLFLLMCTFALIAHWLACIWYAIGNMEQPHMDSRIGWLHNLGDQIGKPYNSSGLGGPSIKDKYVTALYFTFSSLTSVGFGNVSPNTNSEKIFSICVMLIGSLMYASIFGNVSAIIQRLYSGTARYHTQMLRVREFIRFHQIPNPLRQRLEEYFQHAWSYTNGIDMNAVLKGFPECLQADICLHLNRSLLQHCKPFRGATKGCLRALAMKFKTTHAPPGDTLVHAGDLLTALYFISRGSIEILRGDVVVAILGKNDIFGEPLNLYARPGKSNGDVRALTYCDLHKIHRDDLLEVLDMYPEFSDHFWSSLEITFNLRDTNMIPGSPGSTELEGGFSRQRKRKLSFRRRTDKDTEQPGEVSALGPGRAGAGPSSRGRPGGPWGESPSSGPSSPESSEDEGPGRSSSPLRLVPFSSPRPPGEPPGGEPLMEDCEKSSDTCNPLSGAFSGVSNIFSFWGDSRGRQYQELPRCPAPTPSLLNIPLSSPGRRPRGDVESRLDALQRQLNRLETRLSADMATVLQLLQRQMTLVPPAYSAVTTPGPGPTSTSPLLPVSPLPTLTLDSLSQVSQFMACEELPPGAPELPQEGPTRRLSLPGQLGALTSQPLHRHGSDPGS
Experimental: Peak tail current was measured during the 2 second step to −50 mV.

[11] = compound at 10 μM, 120 minutes, 50 pmoles CYP/mL, NADPH, two separate studies (two lines)

IC50 [1]: 0.023 µM
solubility at 4 day ([2]; organic solvent or mixture, solvent 2-Methyl THF): 9.03 mg/mL (≈ 25 mM)
solubility at 4 day ([2]; organic solvent or mixture, solvent Acetone): 14.3 mg/mL (≈ 39.5 mM)
solubility at 4 day ([2]; organic solvent or mixture, solvent Acetonitrile): 9.76 mg/mL (≈ 27 mM)
solubility at 4 day ([2]; organic solvent or mixture, solvent Benzyl Alcohol): 362 mg/mL (≈ 1000 mM)
solubility at 4 day ([2]; organic solvent or mixture, solvent Cumene): 2.52 mg/mL (≈ 6.97 mM)
solubility at 4 day ([2]; organic solvent or mixture, solvent DCM): 116 mg/mL (≈ 322 mM)
solubility at 4 day ([2]; organic solvent or mixture, solvent DME): 16.1 mg/mL (≈ 44.4 mM)
solubility at 4 day ([2]; organic solvent or mixture, solvent DMSO): 67.7 mg/mL (≈ 187 mM)
solubility at 4 day ([2]; organic solvent or mixture, solvent Diiodomethane): 81 mg/mL (≈ 224 mM)
solubility at 4 day ([2]; organic solvent or mixture, solvent Dioxane): 36.8 mg/mL (≈ 102 mM)
solubility at 4 day ([2]; organic solvent or mixture, solvent EtOAc): 7.24 mg/mL (≈ 20 mM)
solubility at 4 day ([2]; organic solvent or mixture, solvent Ethanol): 42.1 mg/mL (≈ 116 mM)
solubility at 4 day ([2]; organic solvent or mixture, solvent Ethylene Glycol): 35.3 mg/mL (≈ 97.8 mM)
solubility at 4 day ([2]; organic solvent or mixture, solvent Glycerol): 0.69 mg/mL (≈ 1.91 mM)
solubility at 4 day ([2]; organic solvent or mixture, solvent IPA): 7.92 mg/mL (≈ 21.9 mM)
solubility at 4 day ([2]; organic solvent or mixture, solvent MEK): 14.2 mg/mL (≈ 39.4 mM)
solubility at 4 day ([2]; organic solvent or mixture, solvent MTBE): 0.3 mg/mL (≈ 0.83 mM)
solubility at 4 day ([2]; organic solvent or mixture, solvent Methanol): 41 mg/mL (≈ 114 mM)
solubility at 4 day ([2]; organic solvent or mixture, solvent Nitromethane): 44.4 mg/mL (≈ 123 mM)
solubility at 4 day ([2]; solvent water): 0.15 mg/mL (≈ 0.415 mM)
% remaining +/− SDEV ([3]; compound at 1 μM): 102 +/− 3.6% and 125 +/− 44.2%
% remaining +/− SDEV ([3]; compound at 10 μM): 94.7 +/− 4.4% and 130 +/− 11%
% remaining +/− SDEV ([4]; compound at 1 μM): 113 +/− 7.2% and 79 +/− 9.6%
% remaining +/− SDEV ([4]; compound at 10 μM): 96.7 +/− 4.3% and 86 +/− 7.8%
% remaining +/− SDEV ([5]; compound at 1 μM): 109 +/− 19% and 164 +/− 54.8%
% remaining +/− SDEV ([5]; compound at 10 μM): 109 +/− 5.6% and 111 +/− 1.1%
% remaining +/− SDEV [6, 11]: 40.3 +/− 2.2% and 34 +/− 3.3%
% remaining +/− SDEV [7, 11]: 31.8 +/− 2.1% and 56 +/− 14%
% remaining +/− SDEV ([8]; compound at 1 μM): 128 +/− 22.5% and 96 +/− 2.2%
% remaining +/− SDEV ([8]; compound at 10 μM): 101 +/− 4.4% and 101 +/− 8.5%
% remaining +/− SDEV ([9]; compound at 1 μM): 93 +/− 5.4% and 91.7 +/− 10.4%
% remaining +/− SDEV ([9]; compound at 10 μM): 99 +/− 4.8% and 101 +/− 1.4%
SMILES: C[C@@H](c1ccc2ncccc2c1)c1nnc2sc(-c3cnn(C)c3)nn12 [Compound 1, 6-((S)-1-(6-(1-methyl-1H-pyrazol-4-yl)-[1,2,4]triazolo[3,4-b][1,3,4]thiadiazol-3-yl)ethyl)quinoline]
Metabolism by the CYP isoform, in words ([6]; summary of Table 4): metabolized by both CYP2C19 and CYP3A4 isoforms
Metabolism by the CYP isoform, in words ([7]; summary of Table 4): metabolized by both CYP2C19 and CYP3A4 isoforms
IC50 [10]: 110 µM
